The record followed here is patent publication US20260335323A1, “CHIMERIC MOLECULE” (UCL Business Ltd, priority 2023, published 2026).

For one experiment, the target named is T1, BRD4 (Homo sapiens, UniProt O60885).
T1 construct: Western blot (antibody CST #13440)
As to the kind of experiment: Western blot, BRD4 levels in CAL51 cells. It counts as cell-based. As to conditions: 100 nM, 72 hours. As to the method: (§1) All treatments with (+)-JQ1, NZ-147 or NZ-175 were performed at 100 nM concentration over 72 hours.
(§2) Cells were homogenised in protein lysis buffer consisting of 0.1 M Tris pH 8.0, 0.1 M NaCl, 5% glycerol, IGEPAL® CA-630 (#18896. Sigma-Aldrich) and 5 mM EDTA, 0.1 M N-ethyl maleimide (ThermoFisher, #23030) and protease inhibitor (Cell Signalling Technologies, #5871). Protein concentrations were determined using the BCA assay to ensure equal loading. […] The membranes were immunoblotted with primary antibodies, overnight at 4° C. […]
(§3) Membranes were then incubated with horseradish peroxidase (HRP)-conjugated secondary antibodies (Rabbit #7074 and Mouse #7076) purchased from Cell Signalling Technologies for 1 hour and the HRP signal was detected using EZ-ECL Enhanced Chemiluminescence Detection Kit for HRP (#20-500-500, Sartorius), and imaged with an Alliance Q9 Advanced (UVITec). […]
(§4) We generated a BRD4-ULKTAC (NZ-147) by conjugating (+)-JQ1 (BRD4-targeting moiety) to NZ-60 via a PEG linker (FIG. 8A). CAL51 cells (a triple negative breast cancer cell line) were treated with DMSO, (+)-JQ1 or NZ-147 at 100 nM for 72 hours then lysed and analysed by Western blot (FIG. 8B). […]
In general terms: Immunoblotting shows a protein as a band on a membrane.

For experiment [1], the system named is c-MYC. As to the kind of experiment: Western blot, c-MYC levels in CAL51 cells. It counts as cell-based, human. As to conditions: 100 nM, 72 hours. As to the method:
as §1, §2, §3, §4

The subject of experiment [2] is c-MYC. Briefly: c-MYC immunofluorescence in hTERT-cMYC-ER expressing RPE1 cells. It counts as cell-based, human. The conditions noted are these: 100 nM, 72 hours, with 4-OHT. As to the method: FIG. 9. (A) Schematic representation of hTERT-cMYC-ER expressing RPE1 cells. Treatment with 4-hydroxytamoxifen (4-OHT) translocates c-MYC-ER from the cytoplasm into the nucleus, simulating oncogenic c-MYC. (B) Immunofluorescence images of hTERT-cMYC-ER expressing RPE1 cells treated with DMSO, (+)-JQ1 or NZ-147 at 100 nM for 72 hours, each with or without 4-OHT.
RPE1-hTERT-c-MYC-ER cells were seeded in a 384 well PerkinElmer CellCarrier Ultra plate. In Example 8, cells were treated for 72 hours with DMSO, (+)-JQ1±4-OHT, or, NZ-147±4-OHT. In Example 9, cells were treated for 72 hours with 4-OHT, NZ-175, both, or neither. Thereafter, in both Examples 8 and 9, cells were fixed with 4% paraformaldehyde (PFA) in phosphate buffered saline (PBS) and blocked with 10% FBS and 0.1% Triton in PBS. Plates were incubated at 4° C. overnight, with 1:500 rabbit anti-c-MYC (D84C12) rabbit monoclonal antibody (#5605, Cell Signalling Technologies). The following day, plates were incubated with 1:1000 goat anti-rabbit Alexa 488 (ThermoFisher Scientific, #A-11008) and 1.62 μM Hoechst 33342 at room temperature for 1 hour before imaging. Excitation and emission spectra for each channel are as follows: Hoechst 33342=405/435-480 nm, Alexa 488=488/500-550 nm. Images were acquired at 40× and 63× magnification with water immersion lens.

In a further experiment the test system is A549 cells. As to the kind of experiment: Colony formation assay, A549. Type of experiment: cell-based, human. As to conditions: A549, 100 nM, 72 hours. The protocol:
(§5) A549 and H1299 cells were seeded in 12 well plates at approximately 100 cells per well. In Example 8, wells were treated with DMSO, (+)-JQ1 or NZ-147. In Example 9, cells were treated with DMSO or NZ-175. Colonies were allowed to form over 120 h. Cells were fixed and stained with crystal violet staining solution, prepared in 70% ethanol.
(§6) A colony formation assay was performed in A549 and H1299 cells, which were treated with DMSO, (+)-JQ1 or NZ-147 at 100 nM for 72 hours and stained with crystal violet (FIG. 10A).
(§7) A colony formation assay was performed in A549 and H1299 cells, which were treated with DMSO or NZ-175 at 100 nM for 72 hours and stained with crystal violet (FIG. 16A).

Another experiment deals with H1299 cells. Briefly: Colony formation assay, H1299. It counts as cell-based, human. The protocol:
as §5, §6, §7

Structures are written as SMILES.

For the compound `Cc1sc2c(c1C)C(c1ccc(Cl)cc1)=N[C@@H](CC(=O)NCCOCCOCCOCCn1cc(COc3ccc([C@@H](NC(=O)Nc4cc(C(F)(F)F)cc(C(F)(F)F)c4)C(=O)Nc4ccc(F)cc4F)cc3)nn1)c1nnc(C)n1-2` [NZ-147, (R)-2-(3-(3,5-bis(trifluoromethyl)phenyl)ureido)-2-(4-((1-(1-((S)-4-(4-chlorophenyl)-2,3,9-trimethyl-6H-thieno[3,2-f][1,2,4]triazolo[4,3-a][1,4]diazepin-6-yl)-2-oxo-6,9, 12-trioxa-3-azatetradecan-14-yl)-1H-1,2,3-triazol-4-yl)methoxy)phenyl)-N-(2,4-difluorophenyl) acetamide], the “levels of BRD4” value on BRD4 was “reduced”. Further, in the experiment with c-MYC [1], the “levels of c-MYC” value was “reduced”. Moreover, in the experiment on c-MYC [2], the “nuclear c-MYC” value is recorded as “may show reduced nuclear c-MYC”. In addition, the colony formation entry with A549 cells was “Fewest colonies formed”; with H1299 cells (H1299, 100 nM, 72 hours) it was “Fewest colonies formed”. For the same compound, in the experiment on H1299 cells (c-MYC-amplified cell line H1299), the cell proliferation result was “reduced cell proliferation, exemplified further in the c-MYC-amplified cell line H1299”.
